# Source: patent US7345079B2, “Treatment of disorder related to low cyclic GMP levels” (Yung Shin Pharmaceuticals Industrial Co., Ltd, priority 2001, dated 2008)
# pIC50: −log10 of the molar value.
# Experiments:
# PDE 5 = target: T1, PDE 5 (Homo sapiens, UniProt O76074); assay: Inhibition of PDE 5 (human platelet lysate, cGMP hydrolysis); type: biochemical; conditions: PDE 5 from washed human platelet supernatant; 10 μM cGMP; 37° C. 30 minutes; read-out: IC50 in inhibiting PDE 5
# T1 construct: Washed human platelets were prepared by the method described in Teng et al; from tissue; host or cells: human platelets (sonicated lysate, 39,000×g supernatant)
# Method: A suitable in vitro assay can be used to preliminarily evaluate the effect of a fused pyrazolyl compound on inhibiting a PDE, which hydrolyzes cGMP. For example, platelets are washed, suspended in a buffer, and disrupted by sonication to obtain a solution containing a PDE. A compound to be tested and cGMP (a substrate for the PDE) are added to the solution. Ophiophagus hannah snake venom is subsequently added to remove the phosphate in 5′-GMP (converted from cGMP by the PDE) to form uncharged guanosine. An ion-exchange resin is used to remove the remaining cGMP. The cGMP-free solution is then centrifuged, and an aliquot of the supernatant is taken for quantification of the uncharged guanosine in a liquid scintillation counter. Activity of the PDE is evaluated based on the amount of the uncharged guanosine. In vivo screening can be performed by following procedures well known in the art.
# Washed human platelets were prepared by the method described in Teng et al. Biochem. Biophys. Acta. 1989, 990, 315-320, suspended in 50 mM pH 7.4 Tris-HCl buffer (containing 5 mM MgCl2), and then disrupted by sonication at 4° C. […] The cGMP-free solution thus obtained was then centrifuged, and 0.5 mL of the supernatant was taken for quantification of uncharged guanosine in a liquid scintillation counter.
pIC50 (PDE 5),melting point,Structure (SMILES)
5.46,109 to 110 °C,"COc1ccc2c(-c3ccc(CO)o3)nn(Cc3ccccc3)c2c1 [Compound 1, 1-benzyl-3-(5′-hydroxymethyl-2′-furyl)-6-methoxyindazole]"
–,122 to 123 °C,"OCc1ccc(-c2nn(Cc3ccccc3)c3cc4c(cc23)OCO4)o1 [Compound 4, 1-benzyl-3-(5′-hydroxymethyl-2′-furyl)-5,6-methylenedioxoindazole]"
